# Paper PMC9555310, “Novel inhibitors and activity-based probes targeting serine proteases” (Frontiers in Chemistry, 2022)
# Molecular target: T1, plasmin (Homo sapiens, UniProt P00747)
# T1 construct: purchased Sigma-Aldrich (supplement); R&D Systems; host or cells: human plasma
# Experiment: Irreversible inhibition kinetics of plasmin (fluorogenic substrate progress curves)
# Type: biochemical
# Conditions: PBS pH 7.4, 37°C, mean ± SD (n=2); for Ki: Boc-Val-Leu-Lys-NHMec 50 μM; for k 3: first-order rate constant; for k 3 / K i: second-order rate constant of inactivation
# Experimental: A range of inhibitor concentrations were prepared from a 10 mM stock solution of the test compounds (NAP533, NAP559, NAP800, NAP830, NAP849, and NAP962) in N, N-dimethylformamide (DMF). Recombinant protease activities were assayed using the cognate fluorogenic substrates as follows: trypsin (Z-Gly-Gly-Arg-NHMec), thrombin (Boc-Val-Pro-Arg-NHMec), plasmin (Boc-Val-Leu-Lys-NHMec), human neutrophil elastase (MeO-Succinyl-Ala-Ala-Pro-Val-NHMec), and chymotrypsin (Succinyl-Ala-Ala-Pro-Phe-NHMec). Each substrate was used at a final concentration of 50 μM, in the appropriate buffer for each protease. All inhibition assays were performed in microtiter plates maintained at 37°C in a final volume of 100 μL. The reaction was initiated by the addition of each protease (approx. 0.01 μg/well) and the rate of substrate hydrolysis was recorded continuously at 37°C, over a 60 min period, by measuring the rate of increase in fluorescence (at λex 360 nm, λem 480 nm) using a FLUOstar Optima microplate reader (BMG Labtech).
# The resultant inhibition progress curves obtained for each inhibitor were analyzed by the kinetic models developed by [Tian and Tsou (1982)] and [Walker and Elmore (1984)], for irreversible inhibitors, with curve fitting being achieved using GraFit (Erithacus Software), as described previously ([Ferguson et al., 2016]).
# FIGURE 4 Progress curves for (A), chymotrypsin-catalysed hydrolysis of Succinyl-Ala-Ala-Pro-Phe-NHMec, in the presence of varying concentrations of NAP849. (B), NE-catalysed hydrolysis of MeO-succinyl-Ala-Ala-Pro-Val-NHMec, in the presence of varying concentrations of NAP800. (C) Trypsin-catalysed of Z-Gly-Gly-Arg-NHMec, in the presence of NAP830. (D) Plasmin-catalysed hydrolysis of Boc-Val-Leu-Lys-NHMec, in the presence of varying concentrations of NAP962. Assays were carried out in PBS, pH 7.4, at 37°C, in the presence of a range of inhibitor concentrations (0.25–50 μM) and a fixed concentration (50 μM) of the appropriate substrate for each protease.
# The “product progress” curves for substrate hydrolysis in the presence of an inhibitor (Figure 4) are indicative of the action of irreversible inhibitors operating through the kinetic scheme illustrated in Figure 6. In this scheme, the formation of the reversible enzyme–inhibitor complex (EI) is zcharacterized by the inhibitor constant K i. This is converted into the covalent/irreversible complex (E-I) characterized by a first-order rate constant k 3. The overall second-order rate constant for the inactivation of E by I is given by the ratio k 3/K i ([Walker and Elmore, 1984]; [Tsou, 1988]).
# Fluorogenic enzyme assays were carried out on a FLUOstar OPTIMA spectro-fluorimeter (BMG Labtech) with analysis performed on MARS Data Analysis Software (BMG Labtech). Black 96-well microtitre plates were supplied by Thermo Scientific. Trypsin from porcine pancreas, plasmin from human plasma and chymotrypsin from bovine pancreas were obtained from Sigma-Aldrich. Thrombin and Cathepsin B were supplied by R and D Systems. Human Neutrophil Elastase was supplied by Calbiochem. Fluorogenic substrates Z-Gly-Gly-Arg-NHMec, Succinyl-Ala-Ala-Pro-Phe-NHMec and MeO-Succinyl-Ala-Ala-Pro-Val-NHMec were supplied by Sigma-Aldrich. Boc-Val-Pro-Arg-NHMec was obtained from R and D Systems and Boc-Val-Leu-Lys-NHMec was supplied by PeptaNova. Phosphate Buffered Saline tablets were acquired from Sigma- Aldrich.
# Protease inactivation by each of the compounds under study was evaluated using a fluorogenic enzyme assays. Protease-substrate combinations used as detailed in Section 2. Inhibitors were made up as 10 mM stock solutions in either DMF or DMSO, then diluted with PBS (pH 7.4) to give appropriate working concentrations. A final volume of 100 μL was used per well. Substrate (50 μM final concentration) was added to a black 96-well microtitre plate (Thermo Scientific), in duplicate, followed by addition of inhibitor, in such a manner to give the required final concentration. […]
# T1 sequence (P00747 581-810 limits assumed): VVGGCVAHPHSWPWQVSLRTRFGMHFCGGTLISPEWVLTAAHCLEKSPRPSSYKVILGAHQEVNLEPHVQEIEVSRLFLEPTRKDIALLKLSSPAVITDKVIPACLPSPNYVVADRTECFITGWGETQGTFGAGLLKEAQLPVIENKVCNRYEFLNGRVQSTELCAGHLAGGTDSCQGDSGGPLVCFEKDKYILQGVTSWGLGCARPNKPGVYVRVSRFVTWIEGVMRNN
# T1 sequence (P00747 97-580 partner limits assumed): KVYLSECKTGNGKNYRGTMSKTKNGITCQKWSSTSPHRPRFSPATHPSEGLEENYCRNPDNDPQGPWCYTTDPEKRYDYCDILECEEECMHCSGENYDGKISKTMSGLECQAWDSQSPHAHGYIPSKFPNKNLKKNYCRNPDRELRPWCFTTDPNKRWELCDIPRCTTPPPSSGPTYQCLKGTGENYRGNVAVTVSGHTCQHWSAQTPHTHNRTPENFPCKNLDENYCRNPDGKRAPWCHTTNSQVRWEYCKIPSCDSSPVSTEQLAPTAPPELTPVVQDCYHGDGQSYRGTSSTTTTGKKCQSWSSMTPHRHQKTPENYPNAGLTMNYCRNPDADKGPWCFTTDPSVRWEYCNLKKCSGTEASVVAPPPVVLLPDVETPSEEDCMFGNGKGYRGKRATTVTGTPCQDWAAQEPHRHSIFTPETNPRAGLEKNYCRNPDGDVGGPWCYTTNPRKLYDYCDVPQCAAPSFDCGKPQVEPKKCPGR
Structure (SMILES),Ki [µM],k 3,k 3 / K i
"NCCCCN(CC(=O)NCC(=O)NCC(=O)NCCCOCCOCCOCCCNC(=O)CCCCC1SCC2NC(=O)NC21)C(=O)ON1C(=O)CCC1=O (stereo not drawn) [NAP830, Succinimidoyl-CO-NLys-Gly-Gly-PEG-Biotin]",7.2,0.4 (± 0.05) min^−1,6.2 (± 0.9) × 10^4 M^−1 min^−1
"CC(C)N(CC(=O)NCCCOCCOCCOCCCNC(=O)CCCCC1SCC2NC(=O)NC21)C(=O)CN(Cc1ccccc1)C(=O)CN(CCCCN)C(=O)ON1C(=O)CCC1=O (stereo not drawn) [NAP962, Succinimidoyl-CO-NLys-NPhe-NVal-PEG-Biotin]",4.2,0.6 (± 0.1) min^−1,1.4 (± 0.3) × 10^5 M^−1 min^−1
